Bridge positions count the residues as written; N and C are the ends. Square brackets hold non-standard residues; d marks the D form. Peptide text beside a SMILES is read from it. I, II: the chains in the order shown. Phe(4-B(OH)2) = N[C@@H](Cc1ccc(B(O)O)cc1)C(=O)O; Dopa = N[C@@H](Cc1ccc(O)c(O)c1)C(=O)O
Key:
[1] = in vitro; type: in vitro ADME; conditions: calf (bovine), cells or culture medium
Procedure: Next, the stability of 2Ox in glucose containing solutions were tested since it is known that phenyl boronic acids interact with sugars.[11]2Ox was incubated in glucose solution (1 g/mL) or […] DMEM cell media (1 g/mL), which was used in the subsequent cell studies. The analysis was performed for up to 3 days and quantitative analysis was obtained using single ion monitoring (SIM) of m/z of 2Ox (m/z = 664, 388) in LC-ESI-MS to improve sensitivity in detection (SI, Figure S20). Fmoc-Phe-OH was used as an internal standard. […] The amount of 2Ox decreased by around 20% in low glucose DMEM cell culture media after a day of incubation (SI, Figure S20). The decrease is presumably due to the disulfide exchange with free thiols inside the media (10% FCS and cysteine according to manufacturer’s specifications). Nevertheless, 2Ox is sufficiently stable to potential thiol exchange for subsequent biological studies.
(§1) The UV (280 nm) signals were integrated and normalized against the Fmoc-Phe standard as well as the SIM for 664 against the SIM of 388. The relative area was then plotted against the incubation time.
(§2) Figure S 20: Stability of 2Ox in glucose solution (GS) and low glucose cell media (LGM) detected by UV -Vis and ESI-MS. […]
(§3) expected due to free thiols in the media (FCS and cysteine).
(§4) 11. Stability in cytosol under oxidative/reductive conditions
(§5) Stability in liver cytosol […]

[2] = in vitro; type: in vitro ADME; conditions: s9 or cytosol
Procedure: Such differences in the physiological concentration of GSH have been exploited for controlled release. Thus, the GSH-induced cleavage of 1 mM of 2Ox was probed by incubation in commercially available liver cytosols spiked with physiologically relevant concentrations of GSH:GSSG (1:0.025 and 10:0.25 mM). The analysis was performed for up to 60 min and quantitative analysis was obtained using SIM in LC-MS (2Ox, m/z = 1328, 664) with Fmoc-Phe-OH as an internal standard (SI, Figure S22). […] On the other hand, at a concentration of 10 mM (molar ratio 10:1) the reaction was slightly slower due to longer equilibration time. […] Therefore, although the oxidized complex is stable over a longer period in serum (Figure 6a), GSH release could be induced in cytosolic conditions in cancer cells (Figure 6b), which would be important for controlled release as a drug delivery system.
as §1, §2, §3, §4, §5

[3] = Stability under oxidative conditions (0.1% hydrogen peroxide); type: physicochemical; conditions: LC-MS SIM
Procedure: We further determined the stability of the hybridized sequences under oxidative conditions. The oxidized complex, 2Ox was incubated with 0.1% hydrogen peroxide ([…]). Aliquots were analyzed via LC-MS over different time intervals up to 60 min (SI, Figure S23) using SIM detection. Besides monitoring the decrease in the m/z of 2Ox, SIM also offers the possibility to identify degradation products and allowed us to map the chemical processes involved in the oxidative condition implemented. […] We observed complete conversion to compound 3 (Figure 6c,d). […]
12. Fluorescence quenching assay
Four stock solutions were prepared: 5 mM OSCSO, 2 μM DL488 -BSCSB in a phosphate buffer (100 mM, pH = 6.0, 2.5 mM TCEP) and 5 mM OSCSO, 2 µM DL488-BSCSB in a phosphate buffer (100 mM, pH = 7.4, 2.5 mM TCEP). […] FQA was measured immediately.
The procedure was repeated 3 times both for pH 6.0 and 7.4. Each point on the graph represents mean average of normalized fluorescence for one concentration from the series and error bars represent standard […]
The NMR spectra were recorded on a Bruker AVANCE III 850 MHz spectrometer with a 5 mm triple resonance TXI 1H/13C/15N probe equipped wit h a z-gradient. All spectra were measured at 298 K. The spectra were analyzed using Bruker TopSpin 3.6.1. […]

metabolised at 24 h [1]: ~20%
remaining at 10 min, 1 mM [2]: 80%
starting material left ([3]; 1 mM in ammonium bicarbonate with 0.1% hydrogen peroxide (30 μM), after 10 min): no starting material is left
dissociation into the single peptide sequences ([3]; 0.1% hydrogen peroxide (30 μM), up to 60 min): did not dissociate
Compound: NC(=O)[C@H](Cc1ccc(B(O)O)cc1)NC(=O)[C@H](CO)NC(=O)[C@H](CSSC[C@H](NC(=O)[C@H](CO)NC(=O)[C@@H](N)Cc1ccc(O)c(O)c1)C(=O)N[C@@H](CO)C(=O)N[C@@H](Cc1ccc(O)c(O)c1)C(N)=O)NC(=O)[C@H](CO)NC(=O)[C@@H](N)Cc1ccc(B(O)O)cc1 [2Ox] (I: H-[Phe(4-B(OH)2)]SCS[Phe(4-B(OH)2)]-NH2 / II: H-[Dopa]SCS[Dopa]-NH2; disulfide I:3-II:3)

From article PMC8532147, “Dual Stimuli-Responsive Dynamic Covalent Peptide Tags: Toward Sequence-Controlled Release in Tumor-like Microenvironments” (Journal of the American Chemical Society, 2021)
